For the experiment, the target named is T1, human recombinant renin (Homo sapiens, UniProt P00797).
T1 sequence (P00797 67-406): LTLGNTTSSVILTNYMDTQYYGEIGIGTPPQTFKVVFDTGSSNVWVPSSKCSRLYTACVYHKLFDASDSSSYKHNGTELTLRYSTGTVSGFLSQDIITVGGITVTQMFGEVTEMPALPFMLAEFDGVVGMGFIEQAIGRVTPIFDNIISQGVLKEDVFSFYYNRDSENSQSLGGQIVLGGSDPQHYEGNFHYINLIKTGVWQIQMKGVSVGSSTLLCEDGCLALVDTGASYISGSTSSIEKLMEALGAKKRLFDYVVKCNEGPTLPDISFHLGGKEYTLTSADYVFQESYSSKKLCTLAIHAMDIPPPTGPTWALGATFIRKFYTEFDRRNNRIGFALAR
In words: Inhibition of human recombinant renin, enzymatic in vitro assay with Ang I EIA detection. Type of experiment: biochemical. As to conditions: human recombinant renin 0.16 ng/mL, synthetic human angiotensin(1-14) 0.5 μM, 37° C. for 3 h; read-out: IC50 (concentration that inhibited the enzyme activity by 50%). The procedure:
Inhibition of Human Recombinant Renin by the Compounds of the Invention The enzymatic in vitro assay was performed in 384-well polypropylene plates (Nunc). The assay buffer consisted of 10 mM PBS (Gibco BRL) including 1 mM EDTA and 0.1% BSA. The incubates were composed of 50 μL per well of an enzyme mix and 2.5 μL of renin inhibitors in DMSO. The enzyme mix was premixed at 4° C. and consists of the following components: • human recombinant renin (0.16 ng/mL) • synthetic human angiotensin(1-14) (0.5 μM) • hydroxyquinoline sulfate (1 mM) The mixtures were then incubated at 37° C. for 3 h. To determine the enzymatic activity and its inhibition, the accumulated Ang I was detected by an enzyme immunoassay (EIA) in 384-well plates (Nunc). 5 μL of the incubates or standards were transferred to immuno plates which were previously coated with a covalent complex of Ang I and bovine serum albumin (Ang 1-BSA). 75 μL of Ang I-antibodies in essaybuffer above including 0.01% Tween 20 were added and a primary incubation made at 4° C. overnight. The plates were washed 3 times with PBS including 0.01% Tween 20, and then incubated for 2 h at rt with an antirabbit-peroxidase coupled antibody (WA 934, Amersham).

pIC50: −log10 of the molar value.

As for `COCCOc1cccc(CN(C(=O)C2=C(c3ccc(CCCOc4c(F)ccc(F)c4Cl)cc3)CC3CNCC2N3)C2CC2)c1C` (racemic) [Example 2, (rac.)-(1R*,5S*)-7-{(4-[3-(2-Chloro-3,6-difluorophenoxy)propyl]phenyl}-3,9-diazabicyclo[3.3.1]non-6-ene-6-carboxylic acid cyclopropyl-[3-(2-methoxy-ethoxy)-2-methylbenzyl]amide], the pIC50 is 8.98.

With `COCCOc1nccc(CN(C(=O)C2=C(c3ccc(CCCOc4c(F)ccc(F)c4Cl)cc3)C[C@@H]3CNC[C@H]2N3)C2CC2)c1C` (racemic) [Example 1, (rac.)-(1R*,5S*)-7-{4-[3-(2-Chloro-3,6-difluorophenoxy)propyl]phenyl}-3,9-diazabicyclo[3.3.1]non-6-ene-6-carboxylic acid cyclopropyl-[2-(2-methoxy-ethoxy)-3-methylpyridin-4-ylmethyl]amide], the pIC50 is 9.00.

(Values after patent US20070111989A1, “Novel diazabicyclononene derivatives and use” (priority 2004, published 2007).)
